Experimental data published in patent US20240376113A1 (Volastra Therapeutics, Inc., priority 2020, published 2024).
Like-named read-outs stand apart in the source and are kept apart here.

Target: ENPP-1 ECD (Homo sapiens (Human), UniProt P22413)
Assay: Inhibition of ENPP1 hydrolysis of 2′,3′-cGAMP (Assay 1)
Settings: AMP-Glo luminescence, KI from IC50 via Cheng/Prusoff
[1] = read-out: Assay 1 KI values (class), 2,3-cGAMP 24 μM
[2] = read-out: Assay 1 KI, 2,3-cGAMP 24 μM
[3] = Assay 1 KI values (class), 2,3-cGAMP 24 μM

ENPP-1 ECD, sequence (P22413 98-925): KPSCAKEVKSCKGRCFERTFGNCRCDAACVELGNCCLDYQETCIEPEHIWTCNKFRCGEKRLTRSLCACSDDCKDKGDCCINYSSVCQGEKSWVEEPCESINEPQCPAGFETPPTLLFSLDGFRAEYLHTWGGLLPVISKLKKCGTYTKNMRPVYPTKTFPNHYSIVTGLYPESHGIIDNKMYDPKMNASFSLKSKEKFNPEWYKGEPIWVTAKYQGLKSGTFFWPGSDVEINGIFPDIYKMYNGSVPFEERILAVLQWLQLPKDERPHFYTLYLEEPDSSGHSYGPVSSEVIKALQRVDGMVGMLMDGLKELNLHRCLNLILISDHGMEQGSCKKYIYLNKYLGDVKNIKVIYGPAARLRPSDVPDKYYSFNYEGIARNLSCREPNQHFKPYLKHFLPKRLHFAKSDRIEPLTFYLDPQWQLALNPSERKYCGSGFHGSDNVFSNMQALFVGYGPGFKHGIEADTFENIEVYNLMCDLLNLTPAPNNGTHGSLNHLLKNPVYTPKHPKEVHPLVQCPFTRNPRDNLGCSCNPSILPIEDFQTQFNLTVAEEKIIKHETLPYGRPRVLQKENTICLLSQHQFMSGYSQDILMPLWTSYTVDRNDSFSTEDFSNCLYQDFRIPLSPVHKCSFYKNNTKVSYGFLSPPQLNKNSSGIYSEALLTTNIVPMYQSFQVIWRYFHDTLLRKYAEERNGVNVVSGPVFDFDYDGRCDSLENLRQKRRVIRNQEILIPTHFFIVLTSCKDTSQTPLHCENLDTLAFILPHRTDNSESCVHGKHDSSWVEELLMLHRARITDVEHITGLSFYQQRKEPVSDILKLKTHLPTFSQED
Description: Test compounds were plated in a 3× dilution scheme in a 384 well plate.

Compound | Ki [1] | Ki [2] | Ki [3] | Ki (Assay 1 KI, 2,3-cGAMP 24 μM)
3-[(4-{[7-(dimethylamino)-5-methyl-[1,2,4]triazolo[1,5-a]pyrimidin-6-yl]methyl}phenyl)(imino)oxo-λ^6-sulfanyl]propaneitrile [Compound 61] | < 3 nM | 0.375 nM | – | –
Cc1cc2ncnn2c(N(C)C)c1Cc1ccc([S@@](C)(=N)=O)cc1 (single isomer, unassigned) [Compound 28b] | 3 to 300 nM | 10 nM | – | –
Cc1c(Cc2ccc([S@](C)(=N)=O)cc2)c(N(C)C)n2ncnc2c1C#N (single isomer, unassigned) [Compound 85b] | – | 11.1 nM | – | –
Cc1nc2ncnn2c(N(C)C)c1Cc1cccc(NS(N)(=O)=O)c1 [Compound 3, N-(3-{[7-(dimethylamino)-5-methyl-[1,2,4]triazolo[1,5-a]pyrimidin-6-yl]methyl}phenyl)aminosulfonamide] | – | – | 3 to 300 nM | 222 nM
Cc1nc2ncnn2c(N(C)C)c1Cc1cccc(S(C)(=N)=O)c1 (stereo not shown) [Compound 4, (3-((7-(dimethylamino)-5-methyl-[1,2,4]triazolo[1,5-a]pyrimidin-6-yl)methyl)phenyl)(imino)(methyl)-λ^6-sulfanone] | – | 537 nM | > 300 nM | –
Cc1nc2ncnn2c(N(C)C)c1CC1CCN(S(N)(=O)=O)CC1 [Compound 15, 4-{[7-(dimethylamino)-5-methyl-[1,2,4]triazolo[1,5-a]pyrimidin-6-yl]methyl}piperidine-1-sulfonamide] | – | 495 nM | 3 to 300 nM | –
Cc1nc2nccn2c(N(C)C)c1Cc1ccc([S@@](C)(=N)=O)cc1 [Compound 29b] | 3 to 300 nM | 42.2 nM | – | –
CCN(CC)c1c(Cc2ccc(S(C)(=N)=O)cc2)c(C)nc2ncnn12 (stereo not shown) [Compound 38] | – | 37.9 nM | 3 to 300 nM | –
Cc1nc2ncnn2c(N(C)C2CC2)c1Cc1ccc(S(C)(=N)=O)cc1 (stereo not shown) [Compound 39, [4-({7-[cyclopropyl(methyl)amino]-5-methyl-[1,2,4]triazolo[1,5-a]pyrimidin-6-yl}methyl)phenyl](imino)methyl-λ^6-sulfanone] | – | – | 3 to 300 nM | –
Cc1nc2ncnn2c(N(C)C2CCC2)c1Cc1ccc(S(C)(=N)=O)cc1 (stereo not shown) [Compound 40] | – | 27 nM | 3 to 300 nM | –
Cc1nc2ncnn2c(N2C3CCC2CC3)c1Cc1ccc(S(C)(=N)=O)cc1 (stereo not shown) [Compound 44, {4-[(7-{7-azabicyclo[2.2.1]heptan-7-yl}-5-methyl-[1,2,4]triazolo[1,5-a]pyrimidin-6-yl)methyl]phenyl}(imino)methyl-λ^6-sulfanone] | – | – | 3 to 300 nM | –
Cc1nc2ncnn2c(N2CC3CC(C3)C2)c1Cc1ccc(S(C)(=N)=O)cc1 (stereo not shown) [Compound 46, {4-[(7-{3-azabicyclo[3.1.1]heptan-3-yl}-5-methyl-[1,2,4]triazolo[1,5-a]pyrimidin-6-yl)methyl]phenyl}(imino)methyl-λ^6-sulfanone] | – | – | 3 to 300 nM | –
Cc1nc2ncnn2c(N2C3CCCC2CC3)c1Cc1ccc(S(C)(=N)=O)cc1 (stereo not shown) [Compound 47] | – | 50.9 nM | 3 to 300 nM | –
CN(C)c1c(Cc2ccc(S(C)(=N)=O)cc2)c(C(F)(F)F)nc2ncnn12 (stereo not shown) [Compound 51] | – | 5.56 nM | 3 to 300 nM | –
Cc1nc2ncnn2c(N(C)C)c1Cc1ccc(S(=N)(=O)C2COC2)cc1 (stereo not shown) [Compound 62, [(4-{[7-(dimethylamino)-5-methyl-[1,2,4]triazolo[1,5-a]pyrimidin-6-yl]methyl}phenyl)(oxetan-3-yl)imino-λ^6-sulfanyl]one] | – | 0.19 nM | < 3 nM | –
Cc1nc2ncnn2c(N(C)C)c1Cc1ccc(S(=N)(=O)C2CC2)cc1 (stereo not shown) [Compound 63, [cyclopropyl(4-{[7-(dimethylamino)-5-methyl-[1,2,4]triazolo[1,5-a]pyrimidin-6-yl]methyl}phenyl)imino-λ^6-sulfanyl]one] | – | 0.0363 nM | < 3 nM | –
Cc1nc2ncnn2c(N(C)C)c1Cc1cccc(S(N)(=O)=O)c1 [Compound 65, 3-{[7-(dimethylamino)-5-methyl-[1,2,4]triazolo[1,5-a]pyrimidin-6-yl]methyl}benzene-1-sulfonamide] | – | 181 nM | 3 to 300 nM | –
CS(=N)(=O)Cc1ccc(-c2cnc3ncnn3c2)cc1 (stereo not shown) [Compound 66, imino(methyl)[(4-{[1,2,4]triazolo[1,5-a]pyrimidin-6-yl}phenyl)methyl]-λ^6-sulfanone] | – | > 1500 nM | > 300 nM | –
Cc1nc2ncnn2c(N(C)C)c1-c1ccc(CCS(C)(=N)=O)cc1 (stereo not shown) [Compound 68, (2-{4-[7-(dimethylamino)-5-methyl-[1,2,4]triazolo[1,5-a]pyrimidin-6-yl]phenyl}ethyl)(imino)methyl-λ^6-sulfanone] | – | – | 3 to 300 nM | –
Cc1nc2ncnn2c(N(C)C)c1-c1ccc2c(c1)CN(S(N)(=O)=O)CC2 [Compound 69, 7-[7-(dimethylamino)-5-methyl-[1,2,4]triazolo[1,5-a]pyrimidin-6-yl]-1,2,3,4-tetrahydroisoquinoline-2-sulfonamide] | – | 122 nM | 3 to 300 nM | –
Cc1nc2ncnn2cc1Cc1ccc(S(C)(=N)=O)cc1 (stereo not shown) [Compound 70, imino(methyl)[4-({5-methyl-[1,2,4]triazolo[1,5-a]pyrimidin-6-yl}methyl)phenyl]-λ6-sulfanone] | – | 179 nM | 3 to 300 nM | –
Cc1nc2ncnn2c(N(C)C)c1Cc1ccc([S@](=N)(=O)CCC(=O)O)cc1 [Compound 72b] | – | 0.982 nM | – | –
CN(C)c1c(Cc2ccc([S@](C)(=N)=O)cc2)c(Cl)nc2ncnn12 [Compound 74b] | 3 to 300 nM | 9.97 nM | – | –
Cc1c(Cc2ccc([S@](C)(=N)=O)cc2)c(N(C)C)n2ccnc2c1C#N [Compound 80b] | 3 to 300 nM | 43 nM | – | –
Cc1nc2nccn2c(N2CCCCC2)c1Cc1ccc(S(C)(=N)=O)cc1 (stereo not shown) [Compound 83, Imino(methyl)(4-{[7-methyl-5-(piperidin-1-yl)imidazo[1,2-a]pyrimidin-6-yl]methyl}phenyl)-λ^6-sulfanone] | – | 0.0978 nM | < 3 nM | –
Cc1nc2ncnn2c(N(C)C)c1-c1ccc2c(c1)CCN(S(N)(=O)=O)C2 [Compound 84, 6-[7-(dimethylamino)-5-methyl-[1,2,4]triazolo[1,5-a]pyrimidin-6-yl]-1,2,3,4-tetrahydroisoquinoline-2-sulfonamide] | – | 672 nM | > 300 nM | –
COc1nc2ncnn2c(N(C)C)c1Cc1ccc([S@](C)(=N)=O)cc1 [Compound 88b] | – | > 15 nM | – | –

Other lines, results leading:

Ki [1] | Ki [2] | Ki [3] | Ki (Assay 1 KI, 2,3-cGAMP 24 μM) | Compound
3 to 300 nM | 13.4 nM | – | – | Cc1nc2ncnn2c(N(C)C)c1Cc1ccc([S@](C)(=N)=O)cc1 (single isomer, unassigned) [Compound 1a]
3 to 300 nM | 13.4 nM | – | – | Cc1nc2ncnn2c(N2CCCC2)c1Cc1ccc([S@@](C)(=N)=O)cc1 (single isomer, unassigned) [Compound 8b]
< 3 nM | 0.356 nM | – | – | Cc1nc2ncnn2c(N(C)C)c1Cc1ccc([S@](C)(=N)=O)cc1 (single isomer, unassigned) [Compound 49b]
3 to 300 nM | 3.17 nM | – | – | Cc1nc2ncnn2c(N2CCCCC2)c1Cc1ccc([S@@](C)(=N)=O)cc1 [Compound 16b]
– | 6.99 nM | 3 to 300 nM | – | Cc1nc2ncnn2c(-n2cccn2)c1Cc1ccc(S(C)(=N)=O)cc1 (stereo not shown) [Compound 18, imino(methyl)(4-((5-methyl-7-(1H-pyrazol-1-yl)-[1,2,4]triazolo[1,5-a]pyrimidin-6-yl)methyl)phenyl)-λ^6-sulfanone]
– | 13.6 nM | 3 to 300 nM | – | Cc1nc2ncnn2c(C)c1Cc1ccc(S(C)(=N)=O)cc1 (stereo not shown) [Compound 26, [4-({5,7-dimethyl-[1,2,4]triazolo[1,5-a]pyrimidin-6-yl}methyl)phenyl](imino)methyl-λ6-sulfanone]
– | 10.8 nM | 3 to 300 nM | – | Cc1nc2ncnn2c(N2CC(F)(F)C2)c1Cc1ccc(S(C)(=N)=O)cc1 (stereo not shown) [Compound 41]
– | – | 3 to 300 nM | – | Cc1nc2ncnn2c(N2CC(C)(C)C2)c1Cc1ccc(S(C)(=N)=O)cc1 (stereo not shown) [Compound 42, (4-{[7-(3,3-dimethylazetidin-1-yl)-5-methyl-[1,2,4]triazolo[1,5-a]pyrimidin-6-yl]methyl}phenyl)(imino)methyl-λ^6-sulfanone]
– | – | 3 to 300 nM | – | Cc1nc2ncnn2c(N2CCC(F)(F)CC2)c1Cc1ccc(S(C)(=N)=O)cc1 (stereo not shown) [Compound 43, (4-{[7-(4,4-difluoropiperidin-1-yl)-5-methyl-[1,2,4]triazolo[1,5-a]pyrimidin-6-yl]methyl}phenyl)(imino)methyl-λ^6-sulfanone]
– | 9.83 nM | 3 to 300 nM | – | Cc1nc2ncnn2c(N2CC3CC2C3)c1Cc1ccc(S(C)(=N)=O)cc1 (stereo not shown) [Compound 45, {4-[(7-{2-azabicyclo[2.1.1]heptan-2-yl}-5-methyl-[1,2,4]triazolo[1,5-a]pyrimidin-6-yl)methyl]phenyl}(imino)methyl-λ^6-sulfanone]
– | 2.65 nM | < 3 nM | – | Cc1nc2ncnn2c(N2CC3CC3C2)c1Cc1ccc(S(C)(=N)=O)cc1 (stereo not shown) [Compound 48, {4-[(7-{3-azabicyclo[3.1.0]heptan-3-yl}-5-methyl-[1,2,4]triazolo[1,5-a]pyrimidin-6-yl)methyl]phenyl}(imino)methyl-λ^6-sulfanone]
– | 4.85 nM | 3 to 300 nM | – | CS(=N)(=O)c1ccc(Cc2c(C(F)(F)F)nc3ncnn3c2N2CCCCC2)cc1 (stereo not shown) [Compound 52]
– | – | 3 to 300 nM | – | Cc1nc2ncnn2c(C2CC2)c1Cc1ccc(S(C)(=N)=O)cc1 (stereo not shown) [Compound 71, [4-({7-cyclopropyl-5-methyl-[1,2,4]triazolo[1,5-a]pyrimidin-6-yl}methyl)phenyl](imino)methyl-λ6-sulfanone]
